Data taken from the supplement of paper PMC10307832.

Compound: C1CCC(CC1)N(CCNCCC2=C3C(=C(C=C2)O)NC(=O)CO3)C(=O)CCNCCC4=CC(=C(C=C4)Cl)Cl [AZ505] + Nc1nc2[nH]cc(CCc3ccc(C(=O)N[C@@H](CCC(=O)O)C(=O)O)cc3)c2c(=O)[nH]1 [Pemetrexed] (partner 0.2 µM)
Experiment: relative viability (nuclei count vs DMSO), 5 days (fraction); higher = more cells survive
Settings: first compound 0.08 µM
How it was run: (§1)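 Lung cancer cell lines were pin-tool dosed in 1536-well plates on the day after seeding, with either a lone drug or a fixed anchor-drug dose plus five library-drug doses (not always all listed) in √10 steps. Nuclei were counted on 4× images after 5 days. Relative viability is the ratio of treated-well to vehicle-well nuclei counts, with each value a median of duplicate plates.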

Point of comparison: NCI-H3122, relative viability 0.196. Against it:
- NCI-H1437 — higher, 0.334
- NCI-H1755 — higher, 0.474
- NCI-H2023 — higher, 0.219
- HCC-15 — higher, 0.209
- PC-14 — lower, 0.122
- LC-2-ad — higher, 0.279
- NCI-H1975 — higher, 0.289
- RERF-LC-KJ — higher, 0.448
- NCI-H650 — higher, 0.86
- PC-3 [JPC-3] — higher, 0.97

Same assay, conditions: first compound 0.253 µM

Point of comparison: LC-2-ad, relative viability 0.278. Against it:
- NCI-H3122 — lower, 0.197
- NCI-H1437 — higher, 0.314
- NCI-H1755 — higher, 0.452
- NCI-H2023 — lower, 0.221
- HCC-15 — lower, 0.231
- PC-14 — lower, 0.138
- EKVX — higher, 0.385
- NCI-H1975 — higher, 0.311
- RERF-LC-KJ — higher, 0.454
- NCI-H650 — higher, 0.875

Same assay, conditions: first compound 0.8 µM

Point of comparison: NCI-H650, relative viability 1.01. Against it:
- NCI-H3122 — lower, 0.196
- NCI-H1437 — lower, 0.29
- NCI-H1755 — lower, 0.402
- NCI-H2023 — lower, 0.244
- HCC-15 — lower, 0.22
- PC-14 — lower, 0.127
- EKVX — lower, 0.384
- LC-2-ad — lower, 0.294
- NCI-H1975 — lower, 0.309
- RERF-LC-KJ — lower, 0.505
- PC-3 [JPC-3] — higher, 1.18

Same assay, conditions: first compound 2.53 µM

Point of comparison: EKVX, relative viability 0.41. Against it:
- NCI-H3122 — lower, 0.201
- NCI-H1437 — lower, 0.336
- NCI-H1755 — higher, 0.44
- NCI-H2023 — lower, 0.221
- HCC-15 — lower, 0.218
- PC-14 — lower, 0.146
- LC-2-ad — lower, 0.306
- NCI-H1975 — lower, 0.307
- RERF-LC-KJ — higher, 0.449
- NCI-H650 — higher, 1.12
- PC-3 [JPC-3] — higher, 1.09

Same assay, conditions: first compound 8 µM

Point of comparison: NCI-H2023, relative viability 0.244. Against it:
- NCI-H3122 — lower, 0.199
- NCI-H1437 — higher, 0.322
- NCI-H1755 — higher, 0.461
- HCC-15 — lower, 0.24
- PC-14 — lower, 0.166
- EKVX — higher, 0.403
- LC-2-ad — higher, 0.258
- NCI-H1975 — higher, 0.301
- RERF-LC-KJ — higher, 0.434
- NCI-H650 — higher, 0.881
- PC-3 [JPC-3] — higher, 1.27

Compound: Cn1c(=O)n(-c2ccc(C(C)(C)C#N)cc2)c2c3cc(-c4cnc5ccccc5c4)ccc3ncc21 [Dactolisib] + CC(C)C[C@H](NC(=O)[C@H](Cc1ccccc1)NC(=O)c1cnccn1)B(O)O [Bortezomib] (partner 0.002 µM)
Experiment: as above
Settings: first compound 0.002 µM
How it was run: as §1

Point of comparison: EKVX, relative viability 1.09. Against it:
- NCI-H3122 — lower, 1
- NCI-H1437 — lower, 0.567
- NCI-H1755 — lower, 1.01
- NCI-H2023 — lower, 0.673
- HCC-15 — lower, 0.977
- PC-14 — lower, 0.904
- LC-2-ad — the same, 1.09
- NCI-H1975 — lower, 0.362
- RERF-LC-KJ — higher, 1.17
- NCI-H650 — lower, 0.884
- PC-3 [JPC-3] — lower, 0.847

Same assay, conditions: first compound 0.006325 µM

Point of comparison: PC-14, relative viability 0.779. Against it:
- NCI-H3122 — higher, 0.987
- NCI-H1437 — lower, 0.564
- NCI-H1755 — higher, 0.848
- NCI-H2023 — higher, 0.805
- HCC-15 — higher, 0.987
- EKVX — higher, 0.997
- NCI-H1975 — lower, 0.338
- RERF-LC-KJ — higher, 0.978
- NCI-H650 — lower, 0.774
- PC-3 [JPC-3] — higher, 0.842

Same assay, conditions: first compound 0.02 µM

Point of comparison: EKVX, relative viability 1.02. Against it:
- NCI-H3122 — higher, 1.11
- NCI-H1437 — lower, 0.518
- NCI-H1755 — lower, 0.933
- NCI-H2023 — lower, 0.655
- HCC-15 — lower, 0.961
- PC-14 — lower, 0.905
- LC-2-ad — higher, 1.04
- NCI-H1975 — lower, 0.323
- RERF-LC-KJ — lower, 1.01
- NCI-H650 — lower, 0.834
- PC-3 [JPC-3] — lower, 0.802

Same assay, conditions: first compound 0.06325 µM

Point of comparison: NCI-H2023, relative viability 0.171. Against it:
- NCI-H3122 — higher, 1.09
- NCI-H1437 — higher, 0.377
- NCI-H1755 — higher, 0.711
- HCC-15 — higher, 0.823
- PC-14 — higher, 0.559
- EKVX — higher, 0.941
- LC-2-ad — higher, 0.734
- NCI-H1975 — higher, 0.209
- RERF-LC-KJ — higher, 0.641
- NCI-H650 — higher, 0.653
- PC-3 [JPC-3] — higher, 0.902

Same assay, conditions: first compound 0.2 µM

Point of comparison: NCI-H1975, relative viability 0.183. Against it:
- NCI-H3122 — higher, 0.927
- NCI-H1437 — higher, 0.278
- NCI-H1755 — higher, 0.58
- NCI-H2023 — lower, 0.123
- HCC-15 — higher, 0.554
- PC-14 — higher, 0.416
- EKVX — higher, 0.396
- LC-2-ad — higher, 0.52
- RERF-LC-KJ — higher, 0.574
- NCI-H650 — higher, 0.3
- PC-3 [JPC-3] — higher, 0.869

Compound: Cn1c(=O)n(-c2ccc(C(C)(C)C#N)cc2)c2c3cc(-c4cnc5ccccc5c4)ccc3ncc21 [Dactolisib] + Cc1nc(Nc2ncc(C(=O)Nc3c(C)cccc3Cl)s2)cc(N2CCN(CCO)CC2)n1 [Dasatinib] (partner 0.075 µM)
Experiment: as above
Settings: first compound 0.002 µM
How it was run: as §1

Point of comparison: RERF-LC-KJ, relative viability 0.99. Against it:
- NCI-H3122 — lower, 0.702
- NCI-H1437 — lower, 0.378
- NCI-H1755 — lower, 0.392
- NCI-H2023 — lower, 0.487
- HCC-15 — lower, 0.609
- PC-14 — lower, 0.312
- EKVX — lower, 0.523
- LC-2-ad — lower, 0.495
- NCI-H1975 — lower, 0.35
- NCI-H650 — lower, 0.539
- PC-3 [JPC-3] — higher, 1.1

Same assay, conditions: first compound 0.006325 µM

Point of comparison: NCI-H650, relative viability 0.432. Against it:
- NCI-H3122 — higher, 0.818
- NCI-H1437 — lower, 0.426
- NCI-H1755 — lower, 0.401
- NCI-H2023 — higher, 0.454
- HCC-15 — higher, 0.559
- PC-14 — lower, 0.285
- EKVX — higher, 0.578
- LC-2-ad — higher, 0.486
- NCI-H1975 — lower, 0.305
- RERF-LC-KJ — higher, 0.747
- PC-3 [JPC-3] — higher, 0.941

Same assay, conditions: first compound 0.02 µM

Point of comparison: NCI-H1437, relative viability 0.378. Against it:
- NCI-H3122 — higher, 0.752
- NCI-H1755 — higher, 0.379
- NCI-H2023 — lower, 0.376
- HCC-15 — higher, 0.499
- PC-14 — lower, 0.264
- EKVX — higher, 0.382
- LC-2-ad — higher, 0.491
- NCI-H1975 — lower, 0.246
- RERF-LC-KJ — higher, 0.69
- NCI-H650 — higher, 0.449
- PC-3 [JPC-3] — higher, 0.911

Same assay, conditions: first compound 0.06325 µM

Point of comparison: NCI-H2023, relative viability 0.0921. Against it:
- NCI-H3122 — higher, 0.675
- NCI-H1437 — higher, 0.358
- NCI-H1755 — higher, 0.412
- HCC-15 — higher, 0.319
- PC-14 — lower, 0.0655
- EKVX — higher, 0.269
- LC-2-ad — higher, 0.349
- NCI-H1975 — higher, 0.167
- RERF-LC-KJ — higher, 0.347
- NCI-H650 — higher, 0.314
- PC-3 [JPC-3] — higher, 1.03

Same assay, conditions: first compound 0.2 µM

Point of comparison: PC-3 [JPC-3], relative viability 0.885. Against it:
- NCI-H3122 — lower, 0.225
- NCI-H1437 — lower, 0.227
- NCI-H1755 — lower, 0.278
- NCI-H2023 — lower, 0.0851
- HCC-15 — lower, 0.229
- PC-14 — lower, 0.0441
- EKVX — lower, 0.204
- LC-2-ad — lower, 0.297
- NCI-H1975 — lower, 0.135
- RERF-LC-KJ — lower, 0.311
- NCI-H650 — lower, 0.305

Compound: Cn1c(=O)n(-c2ccc(C(C)(C)C#N)cc2)c2c3cc(-c4cnc5ccccc5c4)ccc3ncc21 [Dactolisib] + O=C(CCCCCCC(=O)Nc1ccccc1)NO [Vorinostat] (partner 1 µM)
Experiment: as above
Settings: first compound 0.002 µM
How it was run: as §1

Point of comparison: NCI-H1437, relative viability 0.865. Against it:
- NCI-H3122 — higher, 1.03
- NCI-H1755 — lower, 0.758
- NCI-H2023 — lower, 0.305
- HCC-15 — higher, 0.961
- PC-14 — lower, 0.767
- EKVX — lower, 0.794
- LC-2-ad — lower, 0.857
- NCI-H1975 — lower, 0.788
- RERF-LC-KJ — lower, 0.683
- NCI-H650 — lower, 0.414
- PC-3 [JPC-3] — higher, 0.968

Same assay, conditions: first compound 0.006325 µM

Point of comparison: PC-3 [JPC-3], relative viability 0.843. Against it:
- NCI-H3122 — higher, 0.854
- NCI-H1437 — lower, 0.836
- NCI-H1755 — lower, 0.77
- NCI-H2023 — lower, 0.479
- HCC-15 — lower, 0.786
- PC-14 — lower, 0.681
- EKVX — lower, 0.72
- LC-2-ad — lower, 0.699
- NCI-H1975 — lower, 0.622
- RERF-LC-KJ — lower, 0.699
- NCI-H650 — lower, 0.501

Same assay, conditions: first compound 0.02 µM

Point of comparison: NCI-H650, relative viability 0.469. Against it:
- NCI-H3122 — higher, 1.09
- NCI-H1437 — higher, 0.802
- NCI-H1755 — higher, 0.71
- NCI-H2023 — lower, 0.439
- HCC-15 — higher, 0.85
- PC-14 — lower, 0.417
- EKVX — higher, 0.657
- LC-2-ad — higher, 0.749
- NCI-H1975 — higher, 0.575
- RERF-LC-KJ — higher, 0.707
- PC-3 [JPC-3] — higher, 0.748

Same assay, conditions: first compound 0.06325 µM

Point of comparison: NCI-H650, relative viability 0.306. Against it:
- NCI-H3122 — higher, 1.04
- NCI-H1437 — higher, 0.68
- NCI-H1755 — higher, 0.619
- NCI-H2023 — lower, 0.098
- HCC-15 — higher, 0.498
- PC-14 — lower, 0.155
- EKVX — higher, 0.359
- LC-2-ad — higher, 0.524
- NCI-H1975 — higher, 0.429
- RERF-LC-KJ — higher, 0.452
- PC-3 [JPC-3] — higher, 0.782

Same assay, conditions: first compound 0.2 µM

Point of comparison: NCI-H3122, relative viability 0.671. Against it:
- NCI-H1437 — lower, 0.552
- NCI-H1755 — lower, 0.477
- NCI-H2023 — lower, 0.11
- HCC-15 — lower, 0.373
- PC-14 — lower, 0.163
- EKVX — lower, 0.273
- LC-2-ad — lower, 0.496
- NCI-H1975 — lower, 0.266
- RERF-LC-KJ — lower, 0.542
- NCI-H650 — lower, 0.179
- PC-3 [JPC-3] — lower, 0.426
